Measurements taken from article PMC9917560, “Design, Synthesis and Antimicrobial Evaluation of New N-(1-Hydroxy-1,3-dihydrobenzo[c][1,2]oxaborol-6-yl)(hetero)aryl-2-carboxamides as Potential Inhibitors of Mycobacterial Leucyl-tRNA Synthetase” (International Journal of Molecular Sciences, 2023).
pIC50: −log10 of the molar value. Converted amounts (≈) assume the structure as drawn. Where two headings read alike, the source gives them in different places.

How the values were obtained:
[1] = tested on: Mycobacterium tuberculosis H37Ra ITM-M006710 (ATCC 9431); test: Antimycobacterial microdilution (resazurin) vs Mtb H37Ra; type: cell-based
[2] = tested on: Mycobacterium tuberculosis H37Rv CNCTC My 331/88 (ATCC 27294); test: Microplate Alamar Blue assay vs Mtb H37Rv; type: cell-based; settings: Mycobacterium tuberculosis
[3] = tested on: Mycobacterium kansasii DSM 44,162 (ATCC 12478); test: Antimycobacterial microdilution (resazurin) vs M. kansasii; type: cell-based; settings: Middlebrook 7H9, resazurin, read-out: MIC M. kansasii
[4] = tested on: Mycobacterium avium DSM 44,156 (ATCC 25291); test: Antimycobacterial microdilution (resazurin) vs M. avium; type: cell-based; settings: Mycobacterium avium
[5] = tested on: Mycolicibacterium aurum DSM 43,999 (ATCC 23366); test: Antimycobacterial microdilution (resazurin) vs M. aurum; type: cell-based; settings: Middlebrook 7H9, resazurin, read-out: MIC M. aurum
[6] = tested on: Mycolicibacterium smegmatis DSM 43,465 (ATCC 607); test: Antimycobacterial microdilution (resazurin) vs M. smegmatis; type: cell-based; settings: Middlebrook 7H9, resazurin, read-out: MIC M. smeg.
[7] = tested on: Staphylococcus aureus subsp. aureus CCM 4223 (ATCC 29213); test: Antibacterial microdilution broth (EUCAST); type: cell-based; settings: read-out: MIC Staphylococcus aureus subsp. aureus
[8] = tested on: methicillin-resistant Staphylococcus aureus subsp. aureus (MRSA) CCM 4750 (ATCC 43300); test: microbe, parasite or virus in culture; type: cell-based; settings: read-out: MIC Methicillin-resistant Staphylococcus aureus subsp. aureus
[9] = tested on: Staphylococcus epidermidis CCM 4418 (ATCC 12228); test: Antibacterial microdilution broth (EUCAST); type: cell-based; settings: read-out: MIC Staphylococcus epidermidis
[10] = tested on: Enterococcus faecalis CCM 4224 (ATCC 29212); test: Antibacterial microdilution broth (EUCAST); type: cell-based; settings: read-out: MIC Enterococcus faecalis
[11] = tested on: Escherichia coli CCM 3954 (ATCC 25922); test: Antibacterial microdilution broth (EUCAST); type: cell-based; settings: Escherichia coli, read-out: MIC Escherichia coli
[12] = tested on: Klebsiella pneumoniae CCM 4415 (ATCC 10031); test: Antibacterial microdilution broth (EUCAST); type: cell-based; settings: Klebsiella pneumoniae, read-out: MIC Klebsiella pneumoniae
[13] = tested on: Acinetobacter baumannii DSM 30007 (ATCC 19606); test: Antibacterial microdilution broth (EUCAST); type: cell-based; settings: read-out: MIC Acinetobacter baumannii
[14] = tested on: Pseudomonas aeruginosa CCM 3955 (ATCC 27853); test: Antibacterial microdilution broth (EUCAST); type: cell-based; settings: read-out: MIC Pseudomonas aeruginosa
[15] = tested on: Candida albicans CCM 8320 (ATCC 24433); test: Antifungal microdilution broth (EUCAST); type: cell-based; settings: Candida albicans, read-out: MIC Candida albicans
[16] = tested on: Candida krusei CCM 8271 (ATCC 6258); test: Antifungal microdilution broth (EUCAST); type: cell-based; settings: Pichia kudriavzevii, read-out: MIC Candida krusei
[17] = tested on: Candida parapsilosis CCM 8260 (ATCC 22019); test: Antifungal microdilution broth (EUCAST); type: cell-based; settings: Lodderomyces parapsilosis, read-out: MIC Candida parapsilosis
[18] = tested on: Candida tropicalis CCM 8264 (ATCC 750); test: Antifungal microdilution broth (EUCAST); type: cell-based; settings: read-out: MIC Candida tropicalis
[19] = tested on: Aspergillus fumigatus ATCC 204305; test: Antifungal microdilution broth (EUCAST); type: cell-based; settings: Aspergillus fumigatus, read-out: MIC Aspergillus fumigatus
[20] = tested on: Aspergillus flavus CCM 8363; test: Antifungal microdilution broth (EUCAST); type: cell-based; settings: Aspergillus flavus, read-out: MIC Aspergillus flavus
[21] = tested on: Lichtheimia corymbifera CCM 8077; test: Antifungal microdilution broth (EUCAST); type: cell-based; settings: Lichtheimia corymbifera, read-out: MIC Lichtheimia corymbifera
[22] = tested on: Trichophyton interdigitale CCM 8377 (ATCC 9533); test: Antifungal microdilution broth (EUCAST); type: cell-based; settings: Trichophyton interdigitale, read-out: MIC Trichophyton interdigitale
HepG2 cell line = test: Cytotoxicity screening, CellTiter 96 assay; settings: for pIC50: Homo sapiens, HepG2, 24 h, read-out: IC50 HepG2; for toxicity to HepG2 up to highest tested concentration: tested up to 500 µM (2, 3), 250 µM (12, 17), 100 µM (6, 7, 11) because of solubility

Cc1nccnc1C(=O)Nc1ccc2c(c1)B(O)OC2 [Compound 3, N-(1-hydroxy-1,3-dihydrobenzo[c][1,2]oxaborol-6-yl)-3-methylpyrazine-2-carboxamide]
MIC ([1]; read-out: MIC Mtb H37Ra, Middlebrook 7H9, resazurin, recalculated from µg/mL): > 1850 µM
MIC ([2]; pH 6.6, read-out: MIC Mtb H37Rv, MABA, Middlebrook 7H9 pH 6.6, recalculated from µg/mL): 92.9 µM (≈ 25 µg/mL)
MIC [3]: 58.1 µM (≈ 15.6 µg/mL)
MIC ([4]; read-out: MIC M. avium, Middlebrook 7H9, resazurin): > 1850 µM
MIC [5]: 14.5 µM (≈ 3.91 µg/mL)
MIC [6]: 14.5 µM (≈ 3.91 µg/mL)
MIC ([7]; 24h incubation): > 500 µM
MIC ([7]; 48h incubation): > 500 µM
MIC ([8]; 24 h): > 500 µM
MIC ([8]; 48 h): > 500 µM
MIC ([9]; 24h incubation): > 500 µM
MIC ([9]; 48h incubation): > 500 µM
MIC ([10]; 24h incubation): > 500 µM
MIC ([10]; 48h incubation): > 500 µM
MIC ([11]; 24h incubation): > 500 µM
MIC ([11]; 48h incubation): > 500 µM
MIC ([12]; 24h incubation): > 500 µM
MIC ([12]; 48h incubation): > 500 µM
MIC ([13]; 24h incubation): > 500 µM
MIC ([13]; 48h incubation): > 500 µM
MIC ([14]; 24h incubation): > 500 µM
MIC ([14]; 48h incubation): > 500 µM
MIC ([15]; 24h incubation): > 500 µM
MIC ([15]; 48h incubation): > 500 µM
MIC ([16]; 24h incubation): > 500 µM
MIC ([16]; 48h incubation): > 500 µM
MIC ([17]; 24h incubation): > 500 µM
MIC ([17]; 48h incubation): > 500 µM
MIC ([18]; 24h incubation): > 500 µM
MIC ([18]; 48h incubation): > 500 µM
MIC ([19]; ATCC204305, 24h incubation): > 500 µM
MIC ([19]; ATCC204305, 48h incubation): > 500 µM
MIC ([20]; CCM8363, 24h incubation): > 500 µM
MIC ([20]; CCM8363, 48h incubation): > 500 µM
MIC ([21]; CCM8077, 24h incubation): > 500 µM
MIC ([21]; CCM8077, 48h incubation): > 500 µM
MIC ([22]; 72h incubation): > 500 µM
MIC ([22]; 120h incubation): > 500 µM
melting point: 262.9 to 264 °C
pIC50 (HepG2 cell line): < 3.30
toxicity to HepG2 up to highest tested concentration (HepG2 cell line): non-toxic

O=C(Nc1ccc2c(c1)B(O)OC2)c1ccc(C(F)(F)F)cn1 [Compound 11, N-(1-hydroxy-1,3-dihydrobenzo[c][1,2]oxaborol-6-yl)-5-(trifluoromethyl)picolinamide]
MIC ([1]; Middlebrook 7H9, resazurin, recalculated from µg/mL, read-out: MIC Mtb H37Ra): 97 µM (≈ 31.2 µg/mL)
MIC ([2]; pH 6.6, MABA, Middlebrook 7H9 pH 6.6, recalculated from µg/mL, read-out: MIC Mtb H37Rv): 9.72 µM (≈ 3.13 µg/mL)
MIC [3]: 12.1 µM (≈ 3.91 µg/mL)
MIC ([4]; Middlebrook 7H9, resazurin, read-out: MIC M. avium): 97 µM (≈ 31.2 µg/mL)
MIC [5]: 24.2 µM (≈ 7.81 µg/mL)
MIC [6]: 24.2 µM (≈ 7.81 µg/mL)
MIC ([7]; 24 h): > 125 µM
MIC ([7]; 48 h): > 125 µM
MIC ([8]; 24 h): > 125 µM
MIC ([8]; 48 h): > 125 µM
MIC ([9]; 24 h): > 125 µM
MIC ([9]; 48 h): > 125 µM
MIC ([10]; 24 h): > 125 µM
MIC ([10]; 48 h): > 125 µM
MIC ([11]; 24 h): > 125 µM
MIC ([11]; 48 h): > 125 µM
MIC ([12]; 24 h): > 125 µM
MIC ([12]; 48 h): > 125 µM
MIC ([13]; 24 h): > 125 µM
MIC ([13]; 48 h): > 125 µM
MIC ([14]; 24 h): > 125 µM
MIC ([14]; 48 h): > 125 µM
MIC ([15]; 24 h): > 125 µM
MIC ([15]; 48 h): > 125 µM
MIC ([16]; 24 h): > 125 µM
MIC ([16]; 48 h): > 125 µM
MIC ([17]; 24 h): > 125 µM
MIC ([17]; 48 h): > 125 µM
MIC ([18]; 24 h): > 125 µM
MIC ([18]; 48 h): > 125 µM
MIC ([19]; ATCC204305, 24 h): > 125 µM
MIC ([19]; ATCC204305, 48 h): > 125 µM
MIC ([20]; CCM8363, 24 h): > 125 µM
MIC ([20]; CCM8363, 48 h): > 125 µM
MIC ([21]; CCM8077, 24 h): > 125 µM
MIC ([21]; CCM8077, 48 h): > 125 µM
MIC ([22]; 72 h): > 125 µM
MIC ([22]; 120 h): > 125 µM
melting point: 188.1 to 188.9 °C
pIC50 (HepG2 cell line): < 4.00
toxicity to HepG2 up to highest tested concentration (HepG2 cell line): non-toxic
